In brackets after ≈: the same amount, converted by molar mass. Each block holds one compound with its values, some of them ahead of it.
Assays:
Format in all cases: cell-based
Aspergillus fumigatus = assay: MIC in serial dilution test, Aspergillus fumigatus; settings: 20160 min, pH 6
Experimental: (§1) The antimycotic activities of the compounds were measured by in vitro determination of the minimum inhibitory concentration (MIC) for yeasts, molds and dermatophytes.
(§2) 6 dermatophytes, 2 yeasts and 4 molds were used for testing with fungi, as follows:
Aspergillus fumigatus (Asp.fu.)
(§3) The minimum inhibitory concentration (MIC) was determined in serial dilution tests in test tubes. The volume of the liquid nutrient medium in each test tube was 4.5 ml.
(§4) The substances were dissolved in DMSO and diluted with sterile distilled water to 10 concentrations (100, 50, 25, 12.5, 6.25, 3.12, 1.56, 0.78, 0.39 and 0.19 μg/ml). 0.5 ml of each of these dilution steps was added to the liquid nutrient medium. Thus, a constant concentration of solvent in all the nutrient media was ensured, irrespective of the active compound concentration.
(§5) A comparison solution which contained only the solvent in appropriate concentration was included when carrying out each of the tests.
(§6) The individual strains were maintained on Sabouraud/beerwort agar slants and, before they were used in a test, they underwent a passage on a modified Sabouraud liquid nutrient medium. The strains were then harvested, washed and converted into a suspension of McFaerland 3 in the case of yeasts and molds and of McFaerland 4-5 in the case of dermatophytes.
(§7) The amount of material inoculated (inoculum) was 100 μl/test tube (inoculated densities: yeasts […] of the liquid nutrient medium was 6.0. After inoculation had taken place the fungi were incubated at 22° C. for 14 days.
(§8) The MIC was then determined. The concentration step at which growth was no longer visible on macroscopic inspection was used for the determination of the MIC. The comparison substance used was 1-(2-(2,4-dichlorophenyl)-2-(2,4-dichlorophenylmethoxy)ethyl)-1H-imidazoleas nitrate (compound A).

Candida tropicalis = assay: MIC in serial dilution test, Candida tropicalis; settings: 336 h, pH 6, Candida tropicalis, pH 6.0, 22° C., 14 days, read-out: MIC values, C. trop
Experimental: as §1, §2
Candida tropicalis (C.trop.)
as §3, §4, §5, §6, §7, §8

Microsporum canis = assay: MIC in serial dilution test, Microsporum canis; settings: 336 h, pH 6, Microsporum canis, pH 6.0, 22° C., 14 days, read-out: MIC values, Mi. can
Experimental: as §1, §2
Microsporum canis (Mi.can.)
as §3, §4, §5, §6, §7, §8

Trichophyton verrucosum = assay: MIC in serial dilution test, Trichophyton verrucosum; settings: 336 h, pH 6, Trichophyton verrucosum, pH 6.0, 22° C., 14 days, read-out: MIC values, Tri. ve.
Experimental: as §1, §2
Trichophyton verrucosum (Tri.ve.)
as §3, §4, §5, §6, §7, §8

Mucor mucedo minus = assay: MIC in serial dilution test, Mucor mucedo minus; settings: 336 h, pH 6, Mucor mucedo minus, pH 6.0, 22° C., 14 days, read-out: MIC values, Mu. mu-
Experimental: as §1, §2
Mucor mucedo minus (Mu.mu^-)
as §3, §4, §5, §6, §7, §8

Absidia ramosa = assay: MIC in serial dilution test, Absidia ramosa; settings: Lichtheimia ramosa, 336 h, pH 6, Absidia ramosa; pH 6.0, 22° C., 14 days; read-out: MIC values, Abs. ra.
Experimental: as §1, §2
Absidia ramosa (Abs.ra.)
as §3, §4, §5, §6, §7, §8

Candida albicans = assay: MIC in serial dilution test, Candida albicans; settings: 336 h, pH 6.0, 22° C., 14 days, read-out: MIC values, C. alb
Experimental: as §1, §2
Candida albicans (C.alb.)
as §3, §4, §5, §6, §7, §8

Epidermophyton floccosum = assay: MIC in serial dilution test, Epidermophyton floccosum; settings: 336 h, pH 6, Epidermophyton floccosum, pH 6.0, 22° C., 14 days, read-out: MIC values, Ep. flo
Experimental: as §1, §2
Epidermophyton floccosum
as §3, §4, §5, §6, §7, §8

Microsporum gypseum = assay: MIC in serial dilution test, Microsporum gypseum; settings: Nannizzia gypsea, 336 h; Microsporum gypseum; pH 6.0, 22° C., 14 days; read-out: MIC values, Mi. gyp
Experimental: as §1, §2
Microsporum gypseum (Mi.gyp.)
as §3, §4, §5, §6, §7, §8

[1] = system: Trichophyton mentagrophytes; assay: MIC in serial dilution test, Trichophyton mentagrophytes; settings: 336 h, pH 6, Trichophyton mentagrophytes, pH 6.0, 22° C., 14 days, read-out: MIC values, Tri. me.
Experimental: as §1, §2
Trichophyton mentagrophytes
as §3, §4, §5, §6, §7, §8

Mucor mucedo plus = assay: MIC in serial dilution test, Mucor mucedo plus; settings: 336 h, pH 6, Mucor mucedo plus, pH 6.0, 22° C., 14 days, read-out: MIC values, Mu. mu+
Experimental: as §1, §2
Mucor mucedo plus (Mu.mu^+)
as §3, §4, §5, §6, §7, §8

Trichophyton rubrum = assay: MIC in serial dilution test, Trichophyton rubrum; settings: 336 h, pH 6, Trichophyton rubrum, pH 6.0, 22° C., 14 days, read-out: MIC values, Tri. ru.
Experimental: as §1, §2
Trichophyton rubrum (Tri.ru.)
as §3, §4, §5, §6, §7, §8

MIC values, Asp. fu. (Aspergillus fumigatus): 25,0 μg/ml
Structure (SMILES): CN(CCCSCc1ccc(Cl)cc1)C(Cn1ccnc1)c1ccc(Cl)cc1Cl (centres unmarked) [compound 36, 1-(2-(2,4-Dichlorophenyl)-2-(N-methyl-3-(4-chlorobenzylthio)propylamino)ethyl)-1H-imidazole]

MIC values, Asp. fu. (Aspergillus fumigatus): 6,25 μg/ml
Structure (SMILES): Clc1ccc(SCCCNC(Cn2ccnc2)c2ccc(Br)cc2)cc1 (centres unmarked) [compound 11]

Structure (SMILES): Clc1ccc(SCCCNC(Cn2ccnc2)c2ccc(Cl)cc2Cl)cc1 (centres unmarked) [compound 20, 1-(2-(2,4-Dichlorophenyl)-2-(3-(4-chlorophenylthio)-propylamino)ethyl)-1H-imidazole]
MIC values, Asp. fu. (Aspergillus fumigatus): 3,12 μg/ml

MIC (Candida tropicalis): 1.56 µg/mL (≈ 3.21 µM) | MIC (Microsporum canis): 1.56 µg/mL (≈ 3.21 µM) | MIC values, Asp. fu. (Aspergillus fumigatus): 1,56 μg/ml
Structure (SMILES): Clc1ccc(C(Cn2ccnc2)NCCCSc2ccc(Br)cc2)c(Cl)c1 (centres unmarked) [compound 23, 1-(2-(2,4-dichlorophenyl)-2-(3-(4-bromophenylthio)propylamino)ethyl)-1H-imidazole]

MIC values, Asp. fu. (Aspergillus fumigatus): 6,25 μg/ml
Structure (SMILES): Clc1ccc(SCCNC(Cn2ccnc2)c2ccc(Cl)cc2Cl)cc1 (centres unmarked) [compound 3]

MIC values, Asp. fu. (Aspergillus fumigatus): 12,5 μg/ml
Structure (SMILES): Clc1ccc(C(Cn2ccnc2)NCCCSc2c(Cl)cccc2Cl)c(Cl)c1 (centres unmarked) [compound 26]

MIC values, Asp. fu. (Aspergillus fumigatus): 12,5 μg/ml
Structure (SMILES): COc1ccc(SCCNC(Cn2ccnc2)c2ccc(Cl)cc2Cl)cc1 (centres unmarked) [compound 5]

MIC values, Asp. fu. (Aspergillus fumigatus): 3,12 μg/ml
Structure (SMILES): Clc1ccc(C(Cn2ccnc2)NCCCSc2ccccc2)c(Cl)c1 (centres unmarked) [compound 16]

MIC (Candida tropicalis): 12.5 µg/mL (≈ 28.8 µM) | MIC (Trichophyton verrucosum): 0.78 µg/mL (≈ 1.8 µM) | MIC (Microsporum canis): 6.25 µg/mL (≈ 14.4 µM) | MIC (Mucor mucedo minus): 6.25 µg/mL (≈ 14.4 µM) | MIC values, Asp. fu. (Aspergillus fumigatus): 3,12 μg/ml | MIC (Absidia ramosa): 50 µg/mL (≈ 115 µM) | MIC (Candida albicans): 12.5 µg/mL (≈ 28.8 µM) | MIC (Epidermophyton floccosum): 0.78 µg/mL (≈ 1.8 µM) | MIC (Microsporum gypseum): 3.12 µg/mL (≈ 7.19 µM) | MIC [1]: 0.78 µg/mL (≈ 1.8 µM) | MIC (Mucor mucedo plus): 6.25 µg/mL | MIC (Trichophyton rubrum): 1.56 µg/mL (≈ 3.59 µM)
Structure (SMILES): Clc1ccc(SCCNC(Cn2ccnc2)c2ccc(-c3ccccc3)cc2)cc1 (centres unmarked) [compound 14]

MIC values, Asp. fu. (Aspergillus fumigatus): 6,25 μg/ml
Structure (SMILES): Clc1ccc(SCCCCCNC(Cn2ccnc2)c2ccc(Cl)cc2Cl)cc1 (centres unmarked) [compound 38]
